The source of these data is patent US20260193293A1, “PEPTIDES CAPABLE OF INHIBITING PROTEIN-PROTEIN INTERACTIONS AT GABAB1A SUBUNIT AND USES THEREOF” (UNIVERSITY OF COPENHAGEN, priority 2022, published 2026).

One may read the Ki as the dissociation constant of the complex between target and ligand, obtained from inhibition or displacement.

This assay deals with Sushi domains (SD1/2) protein. The experiment in a line: Fluorescence polarization (FP) competition assay with AJAP-1probe, calculated Ki. The format is binding. The gist of the method:
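Competition against 25 nM TAMRA-labelled peptide probe binding SD1/2, in PBS pH 7.4 with 1% BSA at rt, read at 530/580 nm. IC50 from sigmoidal dose-response fits, at least triplicate; Ki calculated from IC50 using probe Kd from saturation binding.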

Where [1] appears, read: Table 1, affinity maturation, mean ± SEM, n ≥ 3, read-out: Ki.
Setting [2] is: Table 13, peptides for affinity maturation, read-out: Ki (nM) mean ± SEM.

Like-named read-outs stand apart in the source and are kept apart here. Residues, ends and D or L forms follow the SMILES beside them.

Regarding `CC[C@H](C)[C@H](NC(=O)[C@H](Cc1c[nH]c2ccccc12)NC(=O)[C@H](CC(=O)O)NC(=O)[C@H](CC(=O)O)NC(=O)[C@H](CC(=O)O)NC(=O)[C@H](CCC(=O)O)NC(=O)[C@H](CCCCN)NC(=O)[C@H](C)NC(=O)[C@H](C)NC(=O)[C@H](C)NC(=O)[C@H](CCC(=O)O)NC(=O)[C@H](CCCNC(=N)N)NC(=O)[C@H](CCCNC(=N)N)NC(=O)[C@H](CCCNC(=N)N)NC(=O)[C@H](CCCNC(=N)N)NC(=O)[C@H](CCCNC(=N)N)NC(=O)[C@H](CCCNC(=N)N)NC(=O)[C@H](CCCNC(=N)N)NC(=O)[C@H](CCCNC(=N)N)NC(C)=O)C(=O)N[C@@H](CC(=O)O)C(=O)N[C@@H](Cc1c[nH]c2ccccc12)C(=O)NCC(=O)N1CCC[C@H]1C(=O)N[C@H](C(=O)N[C@@H](CO)C(=O)N[C@@H](CC(=O)O)C(=O)N[C@@H](CC(=O)O)C(=O)N[C@@H](CC(=O)O)C(N)=O)[C@@H](C)O` [Peptide R8-RL-17] (Ac-RRRRRRRREAAAKEDDDWIDWGPTSDDD-NH2), the Ki runs as follows: (CPP tagged peptides overview, SD1/2 binding affinity, mean ± SEM, n ≥ 3, read-out: Ki) 105 ± 2 nM; (Table 14, CPPs tagged peptides, read-out: Ki (nM) mean ± SEM) 105 ± 2 nM.
For the compound `CC(=O)N[C@@H](CCC(=O)O)C(=O)N[C@@H](CC(=O)O)C(=O)N[C@@H](CC(=O)O)C(=O)N[C@@H](CO)C(=O)N[C@@H](CC(=O)O)C(=O)N[C@H](C(=O)N[C@@H](Cc1c[nH]c2ccccc12)C(=O)N[C@@H](Cc1c[nH]c2ccccc12)C(=O)NCC(=O)N1CCC[C@H]1C(=O)N[C@H](C(=O)NCC(=O)N[C@@H](CC(=O)O)C(=O)N[C@@H](CCC(=O)O)C(=O)N[C@@H](CC(=O)O)C(N)=O)[C@@H](C)O)C(C)C` [Peptide X, Ac-EDDSDVWWGPTGDED-NH2] (Ac-EDDSDVWWGPTGDED-NH2), the inhibition constant (Ki) is 62 ± 1 nM under setting [1] and 62 ± 1 nM under setting [2]. Further, for the setting “relative to APPWT”, the “fold improved affinity compared to APPWT” value is roughly 10 fold.
On to `CC[C@H](C)[C@H](NC(=O)[C@H](Cc1ccccc1)NC(=O)[C@H](CCC(=O)O)NC(=O)[C@@H](NC(=O)[C@H](CCC(=O)O)NC(C)=O)[C@@H](C)O)C(=O)N[C@@H](C)C(=O)N[C@@H](Cc1c[nH]c2ccccc12)C(=O)NCC(=O)NCC(=O)N[C@@H](C)C(=O)N[C@@H](CC(=O)O)C(=O)N[C@H](C(=O)N[C@@H](CC(=O)O)C(N)=O)[C@@H](C)O` [Peptide Y] (Ac-ETEFIAWGGADTD-NH2), for which the Ki reads like this: under setting [1], 354 ± 9 nM; under setting [2], 345 ± 9 nM.
Take `CC[C@H](C)[C@H](NC(=O)[C@H](Cc1ccccc1)NC(=O)[C@H](CCC(=O)O)NC(=O)[C@@H](NC(=O)[C@H](CCCNC(=N)N)NC(C)=O)[C@@H](C)O)C(=O)N[C@@H](C)C(=O)N[C@@H](Cc1c[nH]c2ccccc12)C(=O)NCC(=O)N1CCC[C@H]1C(=O)N[C@H](C(=O)NCC(=O)N[C@@H](CC(=O)O)C(=O)N[C@@H](CCC(=O)O)C(=O)N[C@@H](CC(=O)O)C(N)=O)[C@@H](C)O` [RTEFIAWGPTGDED] (Ac-RTEFIAWGPTGDED-NH2): the inhibition constant (Ki) (Table 11, deep mutational scanning validation variants of AJAP-1WT, read-out: Ki (nM) mean ± SEM) is 87 ± 3 nM.
As for `CC[C@H](C)[C@H](NC(=O)[C@H](Cc1ccccc1)NC(=O)[C@H](CCC(=O)O)NC(=O)[C@@H](NC(C)=O)[C@@H](C)O)C(=O)N[C@@H](C)C(=O)N[C@@H](Cc1c[nH]c2ccccc12)C(=O)NCC(=O)N1CCC[C@H]1C(=O)N[C@H](C(=O)NCC(=O)N[C@@H](CC(=O)O)C(=O)N[C@@H](CCC(=O)O)C(=O)N[C@@H](CC(=O)O)C(N)=O)[C@@H](C)O` [TEFIAWGPTGDED] (Ac-TEFIAWGPTGDED-NH2), the Ki (Table 5, elongation and truncation scan of AJAP-1 binding epitope, read-out: Ki (nM) mean ± SEM) was 102 ± 4 nM.
